Measured values as given in ChEMBL document CHEMBL4190187, “Discovery of pyrazolopyrimidine derivatives as novel inhibitors of ataxia telangiectasia and rad3 related protein (ATR)” (Bioorg Med Chem Lett, 2017).

Assays:
[1] = target: Mitogen-activated protein kinase kinase kinase 5 (Homo sapiens) (UniProt Q99683); test: Inhibition of recombinant human ASK1 (649 to 946 residues) at 1 uM using myelin basic protein as substrate after 40 mins in presence of [gamma-33P]ATP by scintillation counting method
[2] = system: Epidermal growth factor receptor (Homo sapiens), P00533 [L861Q]; test: Inhibition of recombinant human EGFR L861Q mutant (696 to end residues) at 1 uM using poly(Glu,Tyr) 4:1 as substrate after 40 mins in presence of [gamma-33P]ATP by scintillation counting method
[3] = target: Serine/threonine-protein kinase 32A (Homo sapiens) (UniProt Q8WU08); test: Inhibition of recombinant full-length human STK32A at 1 uM using casein as substrate after 120 mins in presence of [gamma-33P]ATP by scintillation counting method
[4] = target: Rhodopsin kinase GRK7 (Homo sapiens) (UniProt Q8WTQ7); test: Inhibition of recombinant full-length human GRK7 at 1 uM using casein as substrate after 40 mins in presence of [gamma-33P]ATP by scintillation counting method
[5] = target: Mitogen-activated protein kinase kinase kinase kinase 2 (Homo sapiens) (UniProt Q12851); test: Inhibition of recombinant human GCK (1 to 473 residues) at 1 uM using myelin basic protein as substrate after 40 mins in presence of [gamma-33P]ATP by scintillation counting method
[6] = target: Ephrin type-A receptor 8 (Homo sapiens) (UniProt P29322); test: Inhibition of recombinant human EPHA8 (615 to 911 residues) at 1 uM using KTFCGTPEYLAPEVRREPRILSEEEQEMFRDFDYIADWC as substrate after 40 mins in presence of [gamma-33P]ATP by scintillation counting method
[7] = target: Tyrosine-protein kinase TXK (Homo sapiens) (UniProt P42681); test: Inhibition of recombinant human Txk (256 to end residues) at 1 uM using GEEPLYWSFPAKKK as substrate after 40 mins in presence of [gamma-33P]ATP by scintillation counting method
[8] = system: Serine/threonine-protein kinase Chk2 (Homo sapiens), O96017 [I157T]; test: Inhibition of recombinant human CHK2 I157T mutant (5 to end residues) at 1 uM using KKKVSRSGLYRSPSMPENLNRPR as substrate after 40 mins in presence of [gamma-33P]ATP by scintillation counting method
[9] = target: Serine/threonine-protein kinase MRCK beta (Homo sapiens) (UniProt Q9Y5S2); test: Inhibition of recombinant human MRCKbeta (1 to 473 residues) at 1 uM using KKRNRTLTV as substrate after 40 mins in presence of [gamma-33P]ATP by scintillation counting method
[10] = target: NUAK family SNF1-like kinase 1 (Homo sapiens) (UniProt O60285); test: Inhibition of recombinant human ARK5 (2 to end residues) at 1 uM using KKKVSRSGLYRSPSMPENLNRPR as substrate after 40 mins in presence of [gamma-33P]ATP by scintillation counting method
[11] = target: PI3K p110 alpha/p85 alpha (Mus musculus) (UniProt P26450+P42337); test: Inhibition of recombinant full-length mouse p110a E545K mutant/p85a at 1 uM using phosphatidylinositol 4,5-bisphosphate as substrate after 40 mins in presence of [gamma-33P]ATP by scintillation counting method; assay type: protein-complex assay
[12] = target: Serine/threonine-protein kinase ULK2 (Homo sapiens) (UniProt Q8IYT8); test: Inhibition of recombinant human ULK2 (1 to 306 residues) at 1 uM using casein as substrate after 40 mins in presence of [gamma-33P]ATP by scintillation counting method
[13] = target: PI3K p110 delta/p85 alpha (Mus musculus) (UniProt P26450+O35904); test: Inhibition of recombinant full-length mouse p110d/p85a at 1 uM using phosphatidylinositol 4,5-bisphosphate as substrate after 40 mins in presence of [gamma-33P]ATP by scintillation counting method; assay type: protein-complex assay
[14] = target: Mitogen-activated protein kinase 9 (Homo sapiens) (UniProt P45984); test: Inhibition of recombinant full-length human JNK2alpha2 at 1 uM using ATF2 as substrate after 40 mins in presence of [gamma-33P]ATP by scintillation counting method
Homo sapiens = organism: Homo sapiens; test: Inhibition of recombinant full-length human p110a/recombinant p65a (1 to 571 residues) at 1 uM using phosphatidylinositol 4,5-bisphosphate as substrate after 40 mins in presence of [gamma-33P]ATP by scintillation counting method
[15] = target: Serine/threonine-protein kinase Nek1 (Homo sapiens) (UniProt Q96PY6); test: Inhibition of recombinant human NEK1 (1 to 505 residues) at 1 uM using RLGRDKYKTLRQIRQ as substrate after 40 mins in presence of [gamma-33P]ATP by scintillation counting method
[16] = target: Serine/threonine-protein kinase 32B (Homo sapiens) (UniProt Q9NY57); test: Inhibition of recombinant full-length human STK32B at 1 uM using casein as substrate after 120 mins in presence of [gamma-33P]ATP by scintillation counting method
[17] = target: Phosphatidylinositol 4-phosphate 5-kinase type-1 alpha (Homo sapiens) (UniProt Q99755); test: Inhibition of recombinant full-length human PIP5K1alpha at 1 uM using phosphatidylinositol 4-phosphate/phosphatidylserine as substrate after 40 mins in presence of [gamma-33P]ATP by scintillation counting method
Mus musculus = organism: Mus musculus; test: Inhibition of recombinant full-length mouse p110a/recombinant p65a (1 to 571 residues) at 1 uM using phosphatidylinositol 4,5-bisphosphate as substrate after 40 mins in presence of [gamma-33P]ATP by scintillation counting method
[18] = target: Myosin light chain kinase 2, skeletal/cardiac muscle (Homo sapiens) (UniProt Q9H1R3); test: Inhibition of full-length recombinant human MYLK2 at 1 uM using KKLNRTLSFAEPG as substrate after 40 mins in presence of [gamma-33P]ATP by scintillation counting method
[19] = target: Tyrosine-protein kinase Lck (Homo sapiens) (UniProt P06239); test: Inhibition of recombinant full-length human activated Lck at 1 uM using KVEKIGEGTYGVVYK as substrate after 40 mins in presence of [gamma-33P]ATP by scintillation counting method
[20] = target: Mitogen-activated protein kinase kinase kinase 3 (Homo sapiens) (UniProt Q99759); test: Inhibition of recombinant full-length human MEKK3 at 1 uM using MBP as substrate after 40 mins in presence of [gamma-33P]ATP by scintillation counting method
[21] = target: Serine/threonine-protein kinase Nek2 (Homo sapiens) (UniProt P51955); test: Inhibition of recombinant full-length human NEK2 at 1 uM using myelin basic protein as substrate after 40 mins in presence of [gamma-33P]ATP by scintillation counting method
[22] = target: Serine/threonine-protein kinase/endoribonuclease IRE1 (Homo sapiens) (UniProt O75460); test: Inhibition of recombinant human IRE1 (465 to end residues) at 1 uM using myelin basic protein as substrate after 40 mins in presence of [gamma-33P]ATP by scintillation counting method
Serine/threonine-protein kinase/endoribonuclease IRE1 (Homo sapiens), sequence (O75460 19-977 limits assumed): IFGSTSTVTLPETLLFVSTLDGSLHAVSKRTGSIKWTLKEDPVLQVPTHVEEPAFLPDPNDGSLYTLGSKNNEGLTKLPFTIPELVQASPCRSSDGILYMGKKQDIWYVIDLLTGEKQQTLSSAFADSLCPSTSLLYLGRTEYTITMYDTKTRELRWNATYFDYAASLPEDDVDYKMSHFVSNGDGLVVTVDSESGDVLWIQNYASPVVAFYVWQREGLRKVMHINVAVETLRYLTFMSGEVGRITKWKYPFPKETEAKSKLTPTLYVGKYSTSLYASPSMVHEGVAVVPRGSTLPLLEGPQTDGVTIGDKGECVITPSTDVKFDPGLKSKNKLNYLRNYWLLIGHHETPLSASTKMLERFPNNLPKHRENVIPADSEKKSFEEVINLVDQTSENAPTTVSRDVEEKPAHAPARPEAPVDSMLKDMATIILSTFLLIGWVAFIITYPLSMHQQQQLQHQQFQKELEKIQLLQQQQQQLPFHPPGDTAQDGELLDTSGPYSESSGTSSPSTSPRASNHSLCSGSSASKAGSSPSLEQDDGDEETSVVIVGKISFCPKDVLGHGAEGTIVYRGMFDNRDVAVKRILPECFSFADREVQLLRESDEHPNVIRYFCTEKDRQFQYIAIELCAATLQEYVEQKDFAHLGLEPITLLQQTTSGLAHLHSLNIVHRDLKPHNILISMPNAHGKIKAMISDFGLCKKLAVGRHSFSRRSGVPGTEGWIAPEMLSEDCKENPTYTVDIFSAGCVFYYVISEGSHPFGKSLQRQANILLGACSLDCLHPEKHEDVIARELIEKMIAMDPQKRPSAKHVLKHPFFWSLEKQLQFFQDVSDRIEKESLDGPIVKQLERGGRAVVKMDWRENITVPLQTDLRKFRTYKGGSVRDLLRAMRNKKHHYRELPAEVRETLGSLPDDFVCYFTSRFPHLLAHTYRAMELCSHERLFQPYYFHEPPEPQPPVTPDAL

Myosin light chain kinase 2, skeletal/cardiac muscle (Homo sapiens), sequence (Q9H1R3 whole entry): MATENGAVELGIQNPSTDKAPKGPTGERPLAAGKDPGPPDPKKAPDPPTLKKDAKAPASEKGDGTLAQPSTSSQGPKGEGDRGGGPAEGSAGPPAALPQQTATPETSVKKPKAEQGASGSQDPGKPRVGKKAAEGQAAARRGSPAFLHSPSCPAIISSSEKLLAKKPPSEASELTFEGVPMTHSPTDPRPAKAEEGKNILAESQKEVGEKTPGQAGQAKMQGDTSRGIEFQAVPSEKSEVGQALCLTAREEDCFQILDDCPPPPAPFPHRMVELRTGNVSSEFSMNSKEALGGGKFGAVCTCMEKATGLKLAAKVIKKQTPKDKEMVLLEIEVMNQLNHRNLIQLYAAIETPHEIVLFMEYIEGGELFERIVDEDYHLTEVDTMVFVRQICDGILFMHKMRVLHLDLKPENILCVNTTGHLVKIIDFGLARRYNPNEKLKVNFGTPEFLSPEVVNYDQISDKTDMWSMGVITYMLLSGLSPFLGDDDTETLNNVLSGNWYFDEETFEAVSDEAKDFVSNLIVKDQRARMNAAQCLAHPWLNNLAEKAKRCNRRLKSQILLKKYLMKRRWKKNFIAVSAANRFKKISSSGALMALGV
Serine/threonine-protein kinase 32A (Homo sapiens), sequence (Q8WU08 whole entry): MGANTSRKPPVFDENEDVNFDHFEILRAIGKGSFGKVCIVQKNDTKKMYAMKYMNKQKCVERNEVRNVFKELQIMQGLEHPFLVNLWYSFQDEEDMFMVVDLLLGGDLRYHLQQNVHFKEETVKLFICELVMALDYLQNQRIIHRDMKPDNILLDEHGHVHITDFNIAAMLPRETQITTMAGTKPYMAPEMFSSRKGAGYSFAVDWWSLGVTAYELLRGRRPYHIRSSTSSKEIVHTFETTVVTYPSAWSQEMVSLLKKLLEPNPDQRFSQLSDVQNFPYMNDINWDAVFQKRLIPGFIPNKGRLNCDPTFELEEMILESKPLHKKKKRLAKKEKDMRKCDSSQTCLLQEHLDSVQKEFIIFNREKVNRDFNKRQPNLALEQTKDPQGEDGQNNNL
Serine/threonine-protein kinase Nek2 (Homo sapiens), sequence (P51955 whole entry): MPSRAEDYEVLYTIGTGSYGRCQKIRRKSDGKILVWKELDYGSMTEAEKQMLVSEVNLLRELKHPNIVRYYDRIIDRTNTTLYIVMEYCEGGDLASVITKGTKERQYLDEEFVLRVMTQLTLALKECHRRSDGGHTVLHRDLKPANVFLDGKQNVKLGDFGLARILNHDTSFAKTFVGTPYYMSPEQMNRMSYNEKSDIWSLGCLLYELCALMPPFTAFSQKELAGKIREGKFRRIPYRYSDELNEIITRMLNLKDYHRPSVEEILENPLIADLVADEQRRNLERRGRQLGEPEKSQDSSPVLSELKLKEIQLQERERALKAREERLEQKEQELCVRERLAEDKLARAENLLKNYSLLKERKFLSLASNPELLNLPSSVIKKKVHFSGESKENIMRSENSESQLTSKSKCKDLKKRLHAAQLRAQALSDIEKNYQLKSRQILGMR
Mitogen-activated protein kinase kinase kinase 5 (Homo sapiens), sequence (Q99683 whole entry, the tested form may be a part): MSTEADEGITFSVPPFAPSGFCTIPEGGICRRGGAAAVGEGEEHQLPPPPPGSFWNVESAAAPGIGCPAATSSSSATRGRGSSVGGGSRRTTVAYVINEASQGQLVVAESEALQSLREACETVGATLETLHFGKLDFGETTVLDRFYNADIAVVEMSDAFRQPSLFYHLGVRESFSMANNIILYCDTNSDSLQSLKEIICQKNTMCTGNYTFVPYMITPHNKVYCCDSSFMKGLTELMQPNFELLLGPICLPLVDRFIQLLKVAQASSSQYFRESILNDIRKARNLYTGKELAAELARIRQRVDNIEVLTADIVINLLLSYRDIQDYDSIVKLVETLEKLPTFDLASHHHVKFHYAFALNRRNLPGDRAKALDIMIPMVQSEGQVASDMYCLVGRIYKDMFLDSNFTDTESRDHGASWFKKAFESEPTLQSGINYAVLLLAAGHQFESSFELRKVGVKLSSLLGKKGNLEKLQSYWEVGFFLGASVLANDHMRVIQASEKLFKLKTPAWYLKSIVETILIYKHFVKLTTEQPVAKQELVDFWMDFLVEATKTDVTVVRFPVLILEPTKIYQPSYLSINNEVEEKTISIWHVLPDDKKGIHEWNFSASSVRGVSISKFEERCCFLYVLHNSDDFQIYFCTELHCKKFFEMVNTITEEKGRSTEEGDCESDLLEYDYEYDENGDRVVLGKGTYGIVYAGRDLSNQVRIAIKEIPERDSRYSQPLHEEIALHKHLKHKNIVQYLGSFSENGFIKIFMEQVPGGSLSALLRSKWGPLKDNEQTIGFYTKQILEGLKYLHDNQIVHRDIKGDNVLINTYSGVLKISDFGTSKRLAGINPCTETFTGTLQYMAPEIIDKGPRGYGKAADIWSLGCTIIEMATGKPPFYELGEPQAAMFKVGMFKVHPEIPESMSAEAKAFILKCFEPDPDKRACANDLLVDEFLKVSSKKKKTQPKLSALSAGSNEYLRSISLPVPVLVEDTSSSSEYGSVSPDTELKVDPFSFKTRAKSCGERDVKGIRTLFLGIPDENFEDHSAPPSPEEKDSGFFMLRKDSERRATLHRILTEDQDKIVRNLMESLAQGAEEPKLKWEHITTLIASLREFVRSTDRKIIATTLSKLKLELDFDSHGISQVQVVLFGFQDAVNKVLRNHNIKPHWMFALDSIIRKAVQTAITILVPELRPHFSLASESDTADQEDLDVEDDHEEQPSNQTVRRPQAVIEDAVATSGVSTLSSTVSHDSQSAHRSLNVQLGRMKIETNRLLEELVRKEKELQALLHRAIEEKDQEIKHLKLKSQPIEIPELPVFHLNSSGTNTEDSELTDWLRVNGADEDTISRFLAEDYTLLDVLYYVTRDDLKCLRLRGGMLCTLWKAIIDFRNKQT
Ephrin type-A receptor 8 (Homo sapiens), sequence (P29322 whole entry, the tested form may be a part): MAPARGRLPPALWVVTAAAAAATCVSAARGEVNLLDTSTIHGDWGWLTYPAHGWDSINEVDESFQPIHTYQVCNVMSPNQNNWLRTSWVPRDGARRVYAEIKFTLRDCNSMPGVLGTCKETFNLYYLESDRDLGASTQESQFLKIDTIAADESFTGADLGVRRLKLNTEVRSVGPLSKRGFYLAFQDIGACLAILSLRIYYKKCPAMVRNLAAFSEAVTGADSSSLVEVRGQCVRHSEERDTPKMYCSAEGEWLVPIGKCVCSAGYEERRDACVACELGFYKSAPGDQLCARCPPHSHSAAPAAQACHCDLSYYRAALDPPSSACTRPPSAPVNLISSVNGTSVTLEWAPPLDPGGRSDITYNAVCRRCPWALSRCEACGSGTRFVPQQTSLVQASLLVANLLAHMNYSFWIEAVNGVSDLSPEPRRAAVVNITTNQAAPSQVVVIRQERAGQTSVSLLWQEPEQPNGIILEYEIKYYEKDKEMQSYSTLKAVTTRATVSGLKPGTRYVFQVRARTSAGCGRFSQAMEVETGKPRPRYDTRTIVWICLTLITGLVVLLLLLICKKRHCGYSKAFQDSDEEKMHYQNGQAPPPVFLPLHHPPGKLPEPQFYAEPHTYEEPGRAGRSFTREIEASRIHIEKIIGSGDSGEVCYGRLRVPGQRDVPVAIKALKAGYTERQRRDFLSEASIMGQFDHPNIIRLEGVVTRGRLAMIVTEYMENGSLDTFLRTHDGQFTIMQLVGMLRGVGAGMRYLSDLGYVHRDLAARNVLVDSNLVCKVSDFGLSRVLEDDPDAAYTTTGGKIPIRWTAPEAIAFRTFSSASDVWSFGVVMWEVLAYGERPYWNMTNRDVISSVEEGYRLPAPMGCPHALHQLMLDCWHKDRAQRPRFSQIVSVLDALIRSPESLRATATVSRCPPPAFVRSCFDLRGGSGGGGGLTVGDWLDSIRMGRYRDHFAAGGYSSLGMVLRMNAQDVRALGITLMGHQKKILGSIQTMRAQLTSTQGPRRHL

**Q.** With CS(=O)(=O)c1ccc(-n2nc(-c3cnc4[nH]ccc4c3)c3c(N)ncnc32)cc1 as the molecule, how does the inhibition [1] read?
**A.** Its inhibition is -7%.

**Q.** And the inhibition [2]?
**A.** Its inhibition is 31%.

**Q.** And the inhibition [3]?
**A.** Its inhibition is 6%.

**Q.** What about the inhibition [4] of the same molecule?
**A.** Its inhibition is -3%.

**Q.** And the inhibition [5]?
**A.** The inhibition was 52%.

**Q.** What about the inhibition [6] of the same molecule?
**A.** Its inhibition is 15%.

**Q.** And the inhibition [7]?
**A.** Its inhibition is 78%.

**Q.** And the inhibition [8]?
**A.** The inhibition was -2%.

**Q.** And the inhibition [9]?
**A.** The inhibition was -4%.

**Q.** What about the inhibition [10] of the same molecule?
**A.** Its inhibition is 15%.

**Q.** What about the inhibition [11] of the same molecule?
**A.** Its inhibition is 11%.

**Q.** And the inhibition [12]?
**A.** Its inhibition is 5%.

**Q.** And the inhibition [13]?
**A.** The inhibition was 27%.

**Q.** And the inhibition [14]?
**A.** The inhibition was -6%.

**Q.** And the inhibition (Homo sapiens)?
**A.** The inhibition was 8%.

**Q.** And the inhibition [15]?
**A.** Its inhibition is -4%.

**Q.** And the inhibition [16]?
**A.** Its inhibition is 7%.

**Q.** And the inhibition [17]?
**A.** The inhibition was 2%.

**Q.** And the inhibition (Mus musculus)?
**A.** Its inhibition is 7%.

**Q.** And the inhibition [18]?
**A.** Its inhibition is 18%.

**Q.** What about the inhibition [19] of the same molecule?
**A.** Its inhibition is 38%.

**Q.** And the inhibition [20]?
**A.** The inhibition was 9%.

**Q.** What about the inhibition [21] of the same molecule?
**A.** Its inhibition is 3%.

**Q.** What about the inhibition [22] of the same molecule?
**A.** Its inhibition is 2%.
